Laboratory results from paper PMC12641067 (Clinical Pharmacology and Therapeutics, 2025).
Read-outs that look alike come from different tables or passages of the source.

Assays:
OATP1B = conditions: substrate CP-I, 600 mg, read-out: In vivo OATP1B Ki,u, cited from earlier work
OATP1B1 [1] = tested on: OATP1B1; parameters: method as in ref 22 (a number printed in a supplementary file, which may have a reference list of its own: not looked up in the article's list); conditions: substrate CP-I, 150 – 600 mg, read-out: In vivo OATP1B Ki,u; cited from earlier work
OATP1B3 [2] = target: T1, OATP1B3 (Homo sapiens, UniProt Q9NPD5); assay: In vivo OATP1B3 inhibition estimated by POP-PK modeling of GCDCA-S data; parameters: hepatic OATP1B3 and renal OAT3 transporters; from tissue; host or cells: liver (hepatocytes) of healthy human subjects, in vivo; conditions: GCDCA-S as substrate, rifampicin 600 mg, population estimate (RSE%), read-out: K i,unbound,OATP1B3
T1 sequence (Q9NPD5 1-702): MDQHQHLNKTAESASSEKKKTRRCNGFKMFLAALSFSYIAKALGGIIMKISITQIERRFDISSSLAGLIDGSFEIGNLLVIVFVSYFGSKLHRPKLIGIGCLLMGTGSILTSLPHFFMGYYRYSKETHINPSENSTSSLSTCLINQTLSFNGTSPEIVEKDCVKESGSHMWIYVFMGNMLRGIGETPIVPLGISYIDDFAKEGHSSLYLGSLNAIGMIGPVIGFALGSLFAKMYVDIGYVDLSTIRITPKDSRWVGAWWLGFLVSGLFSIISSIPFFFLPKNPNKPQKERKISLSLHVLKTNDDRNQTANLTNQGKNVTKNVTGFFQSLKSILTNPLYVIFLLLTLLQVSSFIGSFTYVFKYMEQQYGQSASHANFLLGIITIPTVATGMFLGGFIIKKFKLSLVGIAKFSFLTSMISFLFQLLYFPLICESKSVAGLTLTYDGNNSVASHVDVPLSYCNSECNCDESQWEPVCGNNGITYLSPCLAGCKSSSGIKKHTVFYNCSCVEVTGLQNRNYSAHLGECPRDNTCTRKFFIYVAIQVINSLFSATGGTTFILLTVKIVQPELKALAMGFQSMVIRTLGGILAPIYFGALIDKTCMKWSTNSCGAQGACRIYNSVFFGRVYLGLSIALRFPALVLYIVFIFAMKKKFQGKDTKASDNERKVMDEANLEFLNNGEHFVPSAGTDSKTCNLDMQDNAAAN

OATP1B3 [3] = target: T1, OATP1B3; parameters: method as in ref 18 (a number printed in a supplementary file, which may have a reference list of its own: not looked up in the article's list); conditions: HEK293, read-out: In vitro OATP1B3 IC50, cited from earlier work
OATP1B1 [4] = tested on: OATP1B1; parameters: method as in ref 18 (a number printed in a supplementary file, which may have a reference list of its own: not looked up in the article's list); conditions: HEK293, read-out: In vitro OATP1B1 IC50, cited from earlier work
[5] = Population PK model of rifampicin (plasma data); format: in vivo, human; conditions: population estimate (RSE%)
Protocol: Individual plasma and urine data of GCDCA‐S in healthy subjects were obtained from three clinical studies. Tatosian et al.[18] (study #1) consisted of two occasions: on both occasions, a microdose probe drug cocktail for multiple clinically relevant transporters was administered, with a single oral dose of 600 mg rifampicin co‐administered on the second occasion (n = 6; 3 males, 3 females). Willemin et al.[22] (study #2) was a two‐phase, cross‐over study with a 21‐day washout period between the two phases. […] Study #3 consists of unpublished data from the same study design as reported by Willemin et al. (n = 12; 12 males).[22]
Models were evaluated using visual predictive check (VPC) plots, goodness‐of‐fit (GOF) plots, parameter uncertainty, and changes in objective function. Model visualization and simulations were conducted in MATLAB 2024a (MathWorks, Natick, MA, USA) and Graph Pad Prism 10.2.2 (GraphPad software, La Jolla, CA, USA).
The structural model for rifampicin was based on our previous report,[33] and represents a one‐compartment model with zero‐order absorption and linear elimination.
The models for rifampicin, probenecid, and GCDCA‐S incorporated both inter‐individual variability for a number of model parameters (assuming log‐normal distribution) and residual unexplained variability (using a combination of proportional and additive error models).

Ki (OATP1B3 [2]): 0.009 µM | clearance ([5]; both sexes, human, plasma, oral, 600 mg, read-out: CL RIF (converted)): 112 mL/min | Tk0 RIF ([5]; duration of zero-order absorption): 0.84 (41) h | V RIF [5]: 35 (5) L | Tlag RIF ([5]; single oral dose 600 mg): 0.56 (20) h
SMILES: CO[C@H]1/C=C/O[C@@]2(C)Oc3c(C)c(O)c4c(O)c(c(/C=N/N5CCN(C)CC5)c(O)c4c3C2=O)NC(=O)/C(C)=C\C=C\[C@H](C)[C@H](O)[C@@H](C)[C@@H](O)[C@@H](C)[C@H](OC(C)=O)[C@@H]1C [RIF, rifampicin]
Ki (OATP1B; ref 8): 0.13 µM | Ki (OATP1B; ref 19): 0.02 µM | Ki (OATP1B; ref 21): 0.1 µM | Ki (OATP1B; ref 23): 0.038 µM | Ki (OATP1B; ref 24): 0.053 µM | Ki (OATP1B1 [1]): 0.14 µM | IC50 (OATP1B3 [3]; substrate CP-I): 0.57 µM | IC50 (OATP1B3 [3]; substrate GCDCA-S): 0.28 µM | IC50 (OATP1B1 [4]; substrate CP-I): 0.61 µM | IC50 (OATP1B1 [4]; substrate GCDCA-S): 0.17 µM
